Earlier results as cited in US11116745B2, “Prebiotic formulation” (Deep Cell Industries, Inc., priority 2018, dated 2021).

Experiments:
cannabinoid CB2 receptor = cannabinoid CB2 receptor (Homo sapiens, UniProt P34972)
[1] = not given; remark: listed apart in the source
enteric glial cells = conditions: over active enteric glial cells

Chain of cannabinoid CB2 receptor (P34972 whole entry): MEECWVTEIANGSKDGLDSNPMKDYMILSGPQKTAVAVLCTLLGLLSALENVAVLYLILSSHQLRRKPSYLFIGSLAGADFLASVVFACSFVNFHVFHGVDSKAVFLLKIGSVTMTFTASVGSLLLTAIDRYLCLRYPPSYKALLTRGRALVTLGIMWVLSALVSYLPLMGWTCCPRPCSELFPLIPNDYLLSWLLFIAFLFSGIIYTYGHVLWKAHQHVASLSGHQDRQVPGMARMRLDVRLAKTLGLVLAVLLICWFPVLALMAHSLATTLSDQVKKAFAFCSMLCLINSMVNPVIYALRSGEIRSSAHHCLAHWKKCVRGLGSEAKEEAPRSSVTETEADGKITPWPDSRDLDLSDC

## C=C(C)[C@@H]1CCC(C)=C[C@H]1c1c(O)cc(CCCCC)cc1O [Cannabidiol]
Cannabinoid CB2 receptor
  affinity for the cannabinoid CB2 receptor: very low affinity
other
  oral bioavailability (absorption): 13-19%
[1]
  solubility: low
Enteric glial cells
  expression of S100B and iNOS proteins: reduce
